pEC50: −log10 of the molar value.
Experiments:
[1] = tested on: PD patient fibroblasts (ND29542); assay: Rescue of PD patient fibroblasts from BSO plus iron-induced oxidative stress; format: cell-based, human; conditions: BSO (125 μM) plus iron (125 μM); for Max Rescue (@ 500 nM): 500 nM compound, unit assumed; for pEC50: Homo sapiens, Fibroblast, concentration at which 50% maximal rescue of cell viability was observed
Method: An initial screen was performed to identify the effectiveness of compounds for the amelioration of PD and AD. Test samples and solvent controls were tested for their ability to rescue PD and AD fibroblasts stressed by addition of L-buthionine-(S,R)-sulfoximine (BSO, a specific inhibitor of GSH synthetase) plus iron (e.g. iron citrate), in a similar manner as that described in Jauslin et al., Hum. Mol. Genet. 11(24):3055 (2002), Jauslin et al., FASEB J. 17:1972-4 (2003), and International Patent Application WO 2004/003565. This specific BSO-mediated cell death was prevented or ameliorated by administration of compounds described herein.
The AD experiments were performed as follows. PD experiments were performed in a similar manner; certain specific conditions are noted below in Table 1A.
MEM (a medium enriched in amino acids and vitamins) and Medium 199 (M199) with Earle's Balanced Salts (EBS), without phenol red, were purchased from Invitrogen. Fetal Calf Serum was obtained from Corning. Basic fibroblast growth factor (bFGF) and epidermal growth factor (EGF) were purchased from PeproTech. Penicillin-streptomycin-glutamine mix, L-buthionine (S,R)-sulfoximine, iron citrate, and insulin from bovine pancreas were purchased from Sigma. Calcein AM was purchased from Anaspec. Cell Culture Medium was prepared by combining 450 mL MEM, 50 mL Fetal Calf Serum, 100 U/mL penicillin, and 100 microgram/mL streptomycin. Assay medium was prepared by combining 125 mL M199, 50 mL Fetal Calf Serum, 100 U/mL penicillin, 100 microgram/mL streptomycin, 2 mM glutamine, 10 microgram/mL insulin, 10 ng/mL EGF, and 10 ng/mL bFGF; MEM was added to make the volume up to 500 mL. 10 mM BSO and 10 mM iron citrate solutions were prepared in water with subsequent filter-sterilization and stored at −20° C.
The test samples were supplied in 1.5 mL glass vials or polypropylene vials. The compounds were diluted with DMSO, to result in a 1 mM stock solution. Once dissolved, they were stored at −20° C.
A culture of AD or PD patient-derived fibroblasts was started from a vial with approximately 500,000 cells stored in liquid nitrogen. Cells were propagated in Cell Culture Medium, with subcultivation every third day by trypsinization at a ratio of 1:3. Once confluent, fibroblasts were harvested by trypsinization, resuspended in Assay Medium, and seeded at a final cell density of 2,500 cells/0.1 mL per well of a standard 96-well tissue culture plate. […]
100 microliters of Calcein AM (1 microM) in PBS+Ca+Mg was then added to each well. […] After that time fluorescence (excitation/emission wavelengths of 485 nm and 525 nm, respectively) was read on a Spectramax fluorescence reader. Data were analyzed using standard four-parameter curve fit algorithms (XLFit or Prism) to determine the EC50 concentration for each compound.

[2] = tested on: N27 rat dopaminergic cells overexpressing a truncated human αSynuclein-GFP fusion protein; assay: Inhibition of RSL3-induced αSynuclein aggregation in N27 cells; format: cell-based; conditions: 60 nM RSL3, 70 nM compound, 24 hr; for inhibition of RSL3-induced αSynuclein aggregation: vs RSL3 only (Dunnett's test)
Method: N27 rat dopaminergic cells (purchased from EMD Millipore, SCC048) were transformed to stably overexpress truncated α-Synuclein fused with green fluorescent protein (GFP) with a plasmid construct obtained from Origene (RG221446). Cells were maintained in selection media which consisted of RPMI 1640 media supplemented with 10% (v/v) fetal bovine serum (Millipore, ES-009-B), 1% (v/v) Pencillin-Streptomycin (Gibco, 15140-122), 1% (v/v) L-Glutamine (Gibco, 25030-081) and 500 μg/mL of G418 (Gibco, 10131-027).
N27 rat dopaminergic cells overexpressing a truncated (112 amino acid) human αSynuclein-GFP fusion protein, as described above, were maintained in normal culture conditions as described above. The day before the experiment, cells were plated in 96 well optical bottom, black walled plates at 3,000 cells/well, and maintained at 37° C. for 24 hr. The experiment was initiated by co-treating cells with (1S,3R)-methyl 2-(2-chloroacetyl)-1-(4-(methoxycarbonyl)phenyl)-2,3,4,9-tetrahydro-1H-pyrido[3,4-b]indole-3-carboxylate (1S,3R-RSL3, described by Yang et al., Cell 156:317-331 (2014)) (60 nM) and 70 nM compounds (2,3,5-trimethyl-6-nonylcyclohexa-2,5-diene-1,4-dione (C9), 2,3,5-trimethyl-6-octylcyclohexa-2,5-diene-1,4-dione (C8), or 2,3,5-trimethyl-6-heptylcyclohexa-2,5-diene-1,4-dione (C7)) using a D300e compound printer (Tecan), and placed back in the incubator at 37° C. for 24 hr. Cells were fixed with 4% paraformaldehyde for 15 minutes at room temperature, washed 3 times with Dulbecco's phosphate-buffered saline (DPBS) buffer, and then incubated at room temperature for 48 hr with 1% Triton-X 100 solution (in DPBS) to enable selective labeling of aggregated αSynuclein. Cells were then washed and standard immunocytochemistry (ICC) methods were employed to label total αSynuclein (mouse anti-αSynuclein, 1:250, BD Biosciences). Cells were incubated with primary antibody overnight at 4° C. and then washed with DPBS 3 times the following day. Cells were then incubated at room temperature with a fluorescently conjugated secondary antibody (goat anti-mouse Alexa 647, Invitrogen) for 2 hr at room temperature. 10 nM Hoechst was also added to label nuclei, and cells were imaged on a high-content imaging platform (ThermoFisher, HSC Cellomics Arrayscan) to quantify total aggregated αSynuclein (see FIG. 3A).
Statistical analysis of samples was performed via ordinary one-way ANOVA analysis with Dunnett's multiple comparisons test, comparing RSL3 only-treated vs. RSL3 plus compound-treated cells.

SMILES | Max Rescue (@ 500 nM) [1] [%] | pEC50 [1] | level of aggregation inhibition over C8 [2] | inhibition of RSL3-induced αSynuclein aggregation [2]
CCCCCCCCCC1=C(C)C(=O)C(C)=C(C)C1=O [Compound C9, 2,3,5-trimethyl-6-nonylcyclohexa-2,5-diene-1,4-dione] | 103 | 7.08 | approximately 5.45 fold | significant inhibition
CCCCCCCCC1=C(C)C(=O)C(C)=C(C)C1=O [Compound C8, 2,3,5-trimethyl-6-octylcyclohexa-2,5-diene-1,4-dione, reference compound] | 73 | < 6.30 | – | significant inhibition

— patent publication US20230339835A1, “2,3,5-TRIMETHYL-6-NONYLCYCLOHEXA-2,5-DIENE-1,4-DIONE FOR SUPPRESSING AND TREATING ALPHA-SYNUCLEINOPATHIES, TAUOPATHIES, AND OTHER DISORDERS” (PTC THERAPEUTICS, INC., priority 2018, published 2023)
